Data published in patent EP4434515A1, “CBD FOR OCULAR USE” (Laboratoire Laredo S.L., priority 2023, dated 2024).
Read-outs that look alike come from different tables or passages of the source.

Legend:
[1] = CBD release from micelles through the HA hydrogel into simulated tear fluid, HPLC; type: physicochemical; conditions: after 12 h, simulated tear fluid as receiving medium
Protocol: Next, an assay of CBD release from micelles through the HA hydrogel was carried out for 24 hours (the time that the gel will be in contact with the eye), using STF (simulated tear fluid: NaCl (0.68 g), NaHCO3 (0.22 g), CaCl2·2H2O (0.008 g), KCI (0.14 g), and type II water to a total volume of 100 ml, filtered through a 0.2 µm pore size filter) as the receiving medium in order to recapitulate as much as possible release in tears, and taking samples at 1, 3, 5 8, 12 and 24 h. High-Performance Liquid Chromatography (HPLC) was the analytical technique that allowed the separation, identification (by comparison with standard patterns) and quantification, using a reverse phase and mobile phase under certain conditions; a mixture of methanol and water (85:15). The other conditions are as follows; flow rate of 1.0 ml/min, injection volume 10 µl and wavelength at 220 nm. Under the conditions mentioned above, a good determination of the CBD can be carried out.

DBA/2J mice [2] = test: Intraocular pressure (IOP) by rebound tonometry in glaucoma model mice; type: in vivo
Protocol: The study of the effects of topical ophthalmic CBD administration in micelles was carried out with outbred CD-1 mice and inbred DBA/2J mice. Male JAXTM DBA/2J mice homozygous for null mutations in Tyrplb and GpnmbR150X (-/-) were purchased from Charles River Laboratories (France). CD-1® IGS male mice were obtained from the animal facilities of Universidad Rey Juan Carlos, using 51 mice in total for the study . All animals were 4 weeks-old at the beginning of the study. They were maintained in a temperature (23 ± 1 °C) and humidity (50-55%) controlled room, under a 12 h light/dark cycle (lights off between 19:00 and 07.00 h). Animals had free access to standard laboratory rat chow (Harlan Laboratories Inc.) and tap water. Trained investigators blind to drug treatment conducted all the behavioural assays in groups of two. Experiments were performed between 8:00 and 11:00 a.m. in conscious animals. All animal procedures were designed and conducted in accordance with a protocol approved by the Ethical Committee of Universidad Rey Juan Carlos and by the Autonomous Region of Madrid (PROEX 187.3/21) and followed the guidelines for the Care and Use of Laboratory Animals of the European Union Directive (2010/63/EU) and Spanish regulations (Law 32/2007, RD 53/2013 and order ECC/566/2015). A total of 51 male mice were utilised in this study, as explained in section 2.2 below. The number of animals used and their suffering were minimised
(§1) The research plan designed with the animal model is depicted in Fig. 3. It comprises three main phases: • An ageing phase, which includes an initial 3-month period of quarantine and acclimatisation and an additional 4.5-month period during which IOP (from month 3 until month 7,5), tear production (from month 5,5 until month 7,5) and tactile sensitivity (from month 4 to month 7,5) are monitored to obtain a baseline for such magnitudes. • A treatment phase, beginning when mice were 8 months old, where DBA/2J and CD-1 animals were randomly divided into two groups: treated and untreated. In this phase, treated mice receive CBD doses. The treatment phase comprises 3 periods: an acute period of 1 day, where, at time 0 of the phase, mice receive a CBD dose and are monitored for 24 hours; an initial chronic period of 18 days (days 2 to 19 of the treatment phase), where mice receive a daily CBD dose, and a second chronic period of other […] (days 21 to 37 of the treatment phase), where mice receive 2 daily CBD doses. From the end of the ageing phase to the end of the following phase, the wear-off phase, IOP, tear production and tactile sensitivity are monitored three times per week, following an alternative measuring system: on a same day, IOP was monitored in two groups, while tear production and tactile sensitivity were monitored in the other two groups, while, on the following measuring day, tear production and tactile sensitivity were monitored in the first two groups and IOP was monitored in the other two groups. • A wear-off phase, during which mice receive no treatment and IOP tear production and tactile sensitivity are monitored at 24, 48, 72 and 96 hours after the beginning of the phase, following the same alternative system of the treatment phase.
CBD was administered as part of a micellar solution prepared as described in Example 1. In particular, in each dose, 5 µl of the micellar solution (with 5 mM CBD) was administered to one eye of each mice, while the other eye remained untreated or received only the vehicle, type II water. Treatment was always applied to the right eye. A different group of animals was treated during two weeks with the vehicle to ensure that it had no effect on IOP, corneal mechanical sensitivity or spontaneous production of tear.
Measurements during the chronic treatment phase were always taken prior to daily administration. At each time point indicated in the chart of Fig. 3, rebound tonometry or von Frey test was performed in the same group of animals. […]

CD-1 mice [3] = test: Corneal mechanical sensitivity, von Frey test; type: in vivo; conditions: treated vs untreated
From the text: as §1, with “phase. […]” for “phase.”
(§2) The study was carried out with the same DBA/2J animals used in the study of section 2.3, taking measures of tactile sensitivity in days different from those where IOP was measured, as scheduled in Fig. 3 and Table 3. […]
(§3) Corneal mechanical sensitivity was measured following the von Frey test. […]

DBA/2J mice [4] = test: Corneal mechanical sensitivity, von Frey test; type: in vivo
From the text: as §1, with “phase. […]” for “phase.”
as §2, §3

CD-1 mice [5] = test: Spontaneous production of tear, Schirmer test; type: in vivo; conditions: treated vs untreated
From the text: (§4) The research plan designed with the animal model is depicted in Fig. 3. It comprises three main phases: • An ageing phase, which includes an initial 3-month period of quarantine and acclimatisation and an additional 4.5-month period during which IOP (from month 3 until month 7,5), tear production (from month 5,5 until month 7,5) and tactile sensitivity (from month 4 to month 7,5) are monitored to obtain a baseline for such magnitudes. • A treatment phase, beginning when mice were 8 months old, where DBA/2J and CD-1 animals were randomly divided into two groups: treated and untreated. In this phase, treated mice receive CBD doses. The treatment phase comprises 3 periods: an acute period of 1 day, where, at time 0 of the phase, mice receive a CBD dose and are monitored for 24 hours; an initial chronic period of 18 days (days 2 to 19 of the treatment phase), where mice receive a daily CBD dose, and a second chronic period of other 18 days (days 21 to 37 of the treatment phase), where mice receive 2 daily CBD doses. […]
(§5) Their analysis was carried out following the Von Schirmmer test, which consisted of an ophthalmologic examination used to measure tear production in the eyes by inserting a small special piece of absorbent paper in the corner of the eye to measure the amount of tears produced in a determined period of time. […] Then, the area of the wet test paper was measured (length x width).

DBA/2J mice [6] = test: Spontaneous production of tear, Schirmer test; type: in vivo; conditions: treated vs untreated
From the text: as §4, §5

[7] = Body weight and welfare (actual severity of the procedure); type: in vivo, mice
Protocol: In order to assess the actual severity of the treatment at the end of the procedure, the rates of mortality and morbidity were also recorded. Additionally, body weight measurements were […] during the study, as body weight is considered to be a sign of welfare.
The values obtained are represented in Fig. 11. Additionally, the rate with regard to the value at month 7.8 (where CBD has not been administered yet) was calculated by one-way ANOVA followed by Dunnett's Multiple Comparisons test, a statistical test used to compare multiple treatment groups with a control group. Ia applicable when multiple treatment groups are present and it is desired it determine if any of them are statistically different from the control group, is often used when it is assumed that the variance is equal among all groups The results were over 10% decrease in body weight is normally considered as a severe effect of welfare, and such a level of decrease was not found in the present study for none of the mice.

[8] = topical, cited from earlier work
wildtype mice = conditions: high dose, soya oil/water emulsion; cited from earlier work
CB1 knockout mice = conditions: high dose, soya oil/water emulsion; cited from earlier work
[9] = Acute, hour 1 after single dose
[10] = Chronic, day 12, one daily dose
[11] = Chronic, day 16, one daily dose
[12] = Chronic, day 21, two daily doses
[13] = Chronic, day 26, two daily doses
[14] = Chronic, day 30, two daily doses
[15] = Chronic, day 35, two daily doses
[16] = one week after finishing the treatment

With C=C(C)[C@@H]1CCC(C)=C[C@H]1c1c(O)cc(CCCCC)cc1O [CBD, cannabidiol] the CBD release [1] was “higher than 90%”, the “Δ[contra-(treated)-contra-(non-treated)]” value (DBA/2J mice [2]; [9]) was “+95%” and the “Δ[ipsi-(treated)-ipsi-(non-treated)]” value (DBA/2J mice [2]; [9]) was “+69%”. For the same compound, the “IOP ratio tn/t0, ipsi- (treated)” value (DBA/2J mice [2]; Acute, hour 1 after single dose, treated ipsilateral eye, t0 = month 3.0) was 180%, the “IOP ratio tn/t0, contra- (treated)” value (DBA/2J mice [2]; Acute, hour 1 after single dose, untreated contralateral eye, t0 = month 3.0) was 192% and the “Δ[contra-(treated)-contra-(non-treated)]” value (DBA/2J mice [2]; Chronic, day 3, one daily dose) was “+80%”. For the same compound, the “Δ[ipsi-(treated)-ipsi-(non-treated)]” value (DBA/2J mice [2]; Chronic, day 3, one daily dose) was “+35%”, the “IOP ratio tn/t0, contra- (treated)” value (DBA/2J mice [2]; Chronic, day 3, one daily dose, contralateral eye) was 131% and the “IOP ratio tn/t0, ipsi- (treated)” value (DBA/2J mice [2]; Chronic, day 3, one daily dose, ipsilateral eye) was 130%. The “Δ[contra-(treated)-contra-(non-treated)]” value (DBA/2J mice [2]; Chronic, day 7, one daily dose) was “+49%”, the “Δ[ipsi-(treated)-ipsi-(non-treated)]” value (DBA/2J mice [2]; Chronic, day 7, one daily dose) was -35% and the “IOP ratio tn/t0, contra- (treated)” value (DBA/2J mice [2]; Chronic, day 7, one daily dose, contralateral eye) was 119%. The “IOP ratio tn/t0, ipsi- (treated)” value (DBA/2J mice [2]; Chronic, day 7, one daily dose, ipsilateral eye) was 101%, the “Δ[contra-(treated)-contra-(non-treated)]” value (DBA/2J mice [2]; [10]) was “+30%” and the “Δ[ipsi-(treated)-ipsi-(non-treated)]” value (DBA/2J mice [2]; [10]) was -89%. The “IOP ratio tn/t0, contra- (treated)” value (DBA/2J mice [2]; Chronic, day 12, one daily dose, contralateral eye) was 128%, the “IOP ratio tn/t0, ipsi- (treated)” value (DBA/2J mice [2]; Chronic, day 12, one daily dose, ipsilateral eye) was 104% and the “Δ[contra-(treated)-contra-(non-treated)]” value (DBA/2J mice [2]; [11]) was -85%. The “Δ[ipsi-(treated)-ipsi-(non-treated)]” value (DBA/2J mice [2]; [11]) was -174%, the “IOP ratio tn/t0, contra- (treated)” value (DBA/2J mice [2]; Chronic, day 16, one daily dose, contralateral eye) was 117% and the “IOP ratio tn/t0, ipsi- (treated)” value (DBA/2J mice [2]; Chronic, day 16, one daily dose, ipsilateral eye) was 77%. For the same compound, the “Δ[contra-(treated)-contra-(non-treated)]” value (DBA/2J mice [2]; [12]) was -60%, the “Δ[ipsi-(treated)-ipsi-(non-treated)]” value (DBA/2J mice [2]; [12]) was -81% and the “IOP ratio tn/t0, contra- (treated)” value (DBA/2J mice [2]; Chronic, day 21, two daily doses, contralateral eye) was 100%. For the same compound, the “IOP ratio tn/t0, ipsi- (treated)” value (DBA/2J mice [2]; Chronic, day 21, two daily doses, ipsilateral eye) was 90%, the “Δ[contra-(treated)-contra-(non-treated)]” value (DBA/2J mice [2]; [13]) was -137% and the “Δ[ipsi-(treated)-ipsi-(non-treated)]” value (DBA/2J mice [2]; [13]) was -79%. For the same compound, the “IOP ratio tn/t0, contra- (treated)” value (DBA/2J mice [2]; Chronic, day 26, two daily doses, contralateral eye) was 97%, the “IOP ratio tn/t0, ipsi- (treated)” value (DBA/2J mice [2]; Chronic, day 26, two daily doses, ipsilateral eye) was 95% and the “Δ[contra-(treated)-contra-(non-treated)]” value (DBA/2J mice [2]; [14]) was -119%. The “Δ[ipsi-(treated)-ipsi-(non-treated)]” value (DBA/2J mice [2]; [14]) was -159%, the “IOP ratio tn/t0, contra- (treated)” value (DBA/2J mice [2]; Chronic, day 30, two daily doses, contralateral eye) was 113% and the “IOP ratio tn/t0, ipsi- (treated)” value (DBA/2J mice [2]; Chronic, day 30, two daily doses, ipsilateral eye) was 68%. The “Δ[contra-(treated)-contra-(non-treated)]” value (DBA/2J mice [2]; [15]) was -88%, the “Δ[ipsi-(treated)-ipsi-(non-treated)]” value (DBA/2J mice [2]; [15]) was -82% and the “IOP ratio tn/t0, contra- (treated)” value (DBA/2J mice [2]; Chronic, day 35, two daily doses, contralateral eye) was 96%. The “IOP ratio tn/t0, ipsi- (treated)” value (DBA/2J mice [2]; Chronic, day 35, two daily doses, ipsilateral eye) was 81%, the “Δ[contra-(treated)-contra-(non-treated)]” value (DBA/2J mice [2]; Wear-off, day 38, no treatment) was -44% and the “Δ[ipsi-(treated)-ipsi-(non-treated)]” value (DBA/2J mice [2]; Wear-off, day 38, no treatment) was -78%. For the same compound, the “IOP ratio tn/t0, contra- (treated)” value (DBA/2J mice [2]; Wear-off, day 38, no treatment, contralateral eye) was 64%, the “IOP ratio tn/t0, ipsi- (treated)” value (DBA/2J mice [2]; Wear-off, day 38, no treatment, ipsilateral eye) was 81% and the “Δ[contra-(treated)-contra-(non-treated)]” value (DBA/2J mice [2]; Wear-off, day 40, no treatment) was -34%. For the same compound, the “Δ[ipsi-(treated)-ipsi-(non-treated)]” value (DBA/2J mice [2]; Wear-off, day 40, no treatment) was -70%, the “IOP ratio tn/t0, contra- (treated)” value (DBA/2J mice [2]; Wear-off, day 40, no treatment, contralateral eye) was 171% and the “IOP ratio tn/t0, ipsi- (treated)” value (DBA/2J mice [2]; Wear-off, day 40, no treatment, ipsilateral eye) was 165%. For the same compound, the “IOP relative to the untreated group” value (DBA/2J mice [2]; acute administration (one dose)) was “increased IOP”, the “IOP difference relative to the untreated group” value (DBA/2J mice [2]; after giving two doses (daily)) was -80% and the “IOP compared with the untreated group” value (DBA/2J mice [2]; [16]) was “still reduced”. The “IOP relative to the untreated group, late phase” value (DBA/2J mice [2]; repeated administration, 7 days on) was “decreased values”, the corneal mechanical sensitivity (CD-1 mice [3]) was “no significant effect” and the “corneal mechanical sensitivity relative to the untreated group” value (DBA/2J mice [4]; acute administration) was “decreased mechanical sensitivity”. For the same compound, the corneal mechanical sensitivity (DBA/2J mice [4]; [16]) was “still reduced”, the “spontaneous production of tear” value (CD-1 mice [5]) was “no significant effect” and the “spontaneous production of tear” value (DBA/2J mice [6]) was “no significant effect”. For the same compound, the welfare ([7]; ocular topical administration) was “no severe affection of welfare”, the “body weight decrease with regard to the weight before beginning the treatment” value ([7]; phase of repeated CBD administration, DBA/2J and CD-1 mice, larger in CD-1) was “lower than 10%” and the “effect on IOP” value ([8]; delivered in mineral oil) was “IOP-lowering effect”. For the same compound, the “effect on IOP” value ([8]; delivered in sesame oil) was “absent”, the “effect on IOP” value (wildtype mice) was “increases IOP” and the “effect on IOP” value (CB1 knockout mice) was “decreases IOP”.
